Assay results from patent EP1137644B9, “BENZOFURAN DERIVATIVES, THEIR PREPARATION AND USE” (H. Lundbeck A/S, priority 1998, dated 2000).
pIC50: −log10 of the molar value. Structures can show the parent of a compound that is named as a salt.

These compounds were tested on serotonin reuptake (assay: Inhibition of 3H-5-HT uptake into rat brain synaptosomes). Conditions: ^3H-5-HT accumulation into whole rat brain synaptosomes.
Assay type: biochemical
Experimental: Inhibition of ^3H-5-HT Uptake Into Rat Brain Synaptosomes
Using this method, the ability of drugs to inhibit the accumulation of ^3H-5-HT into whole rat brain synaptosomes is determined in vitro. The assay was performed as described by Hyttel, J., Psychopharmacology 1978, 60, 13.

Structure (SMILES)	pIC50
CN(CCCC1(c2ccc(F)cc2)OCc2cc(C#N)ccc21)CCc1c[nH]c2c(F)cccc12 (stereo not shown) [Compound 12b, 1-[3-[[2-(7-Fluoro-1H-indol-3-yl)ethyl]methylamino]propyl]-1-(4-fluorophenyl)-1,3-dihydroisobenzofuran-5-carbonitrile]	8.00
CN(CCCCc1cccc2c1OCCO2)CCCC1(c2ccc(F)cc2)OCc2cc(C#N)ccc21 (single isomer, unassigned; (+)) [Compound 1a, (+)-1-[3-[[4-(1,4-Benzodioxan-5-yl)butyl]methylamino]propyl]-1-(4-fluorophenyl)-1,3-dihydroisobenzofuran-5-carbonitrile]	7.22
N#Cc1ccc2c(c1)COC2(CCCN1CCC(c2c[nH]c3cc(Cl)ccc23)CC1)c1ccc(F)cc1 (stereo not shown) [Compound 2o, 1-[3-[4-(6-chloro-1H-Indol-3-yl)piperidinyl]propyl]-1-(4-fluorophenyl)-1,3-dihydroisobenzofuran-5-carbonitrile]	7.51
CN(CCCC1(c2ccc(F)cc2)OCc2cc(C#N)ccc21)CCc1cccc2c1OCCO2 (stereo not shown) [Compound 1c, 1-[3-[[2-(1,4-Benzodioxan-5-yl)ethyl]methylamino]propyl]-1-(4-fluorophenyl)-1,3-dihydroisobenzofuran-5-carbonitrile oxalate]	7.07
COc1ccccc1N1CCN(CCCC2(c3ccc(F)cc3)OCc3cc(C#N)ccc32)CC1 (stereo not shown) [Compound 2a, 1-(4-Fluorophenyl)-1-[3-[4-(2-methoxyphenyl)piperazinyl]propyl]-1,3-dihydroisobenzofuran-5-carbonitrile]	6.47
CN(CCCc1cccc2c1OCCO2)CCCC1(c2ccc(F)cc2)OCc2cc(C#N)ccc21 (single isomer, unassigned; (+)) [Compound 1b, (+)-1-[3-[[3-(1,4-Benzodioxan-5-yl)propyl]methylamino]propyl]-1-(4-fluorophenyl)-1,3-dihydroisobenzofuran-5-carbonitrile oxalate]	7.89

Each compound was assayed on Human 5-HT1A Receptors (assay: Inhibition of 3H-5-CT binding to human 5-HT1A receptors). Conditions: at 100 nM; cloned human 5-HT1A receptors expressed in HeLa cells (HA7).
Experimental: The affinity of the compounds of the invention to 5-HT1A receptors was determined by measuring the inhibition of binding of a radioactive ligand at 5-HT1A receptors as described in the following test:
Inhibition of ^3H-5-CT Binding to Human 5-HT1A Receptors
By this method the inhibition by drugs of the binding of the 5-HT1A agonist ^3H-5-carboxamido tryptamine (^3H-5-CT) to cloned human 5-HT1A receptors stably expressed in transfected HeLa cells (HA7) (Fargin, A. et al, J. Biol. Chem., 1989, 264, 14848) is determined in vitro. The assay was performed as a modification of the method described by Harrington, M.A. et al, J. Pharmacol. Exp. Ther., 1994, 268, 1098. Human 5-HT1A receptors (40 µg of cell homogenate) were incubated for 15 minutes at 37 °C in 50 mM Tris buffer at pH 7.7 in the presence of ^3H-5-CT. Non-specific binding was determined by including 10 µM of metergoline. The reaction was terminated by rapid filtration through Unifilter GF/B filters on a Tomtec Cell Harvester. Filters were counted in a Packard Top Counter.

Inhibition of ^3H- 5-CT binding % inhibition at 100 nM [% inh. at 100 nM]	Structure (SMILES)
65	COc1ccccc1OCCCN(C)CCCC1(c2ccc(F)cc2)OCc2cc(C#N)ccc21 (stereo not shown) [Compound 4m, 1-(4-Fluorophenyl)-1-[3-[[3-(2-methoxyphenoxy)propyl]methylamino]propyl]-1,3-dihydroisobenzofuran-5-carbonitrile]
58	C#CCN(CCCc1c[nH]c2ccccc12)CCCC1(c2ccc(F)cc2)OCc2cc(C#N)ccc21 (stereo not shown) [Compound 4u, 1-[3-[[3-(1H-Indol-3-yl)propyl](prop-2-yn-1-yl)amino]propyl]-1-(4-fluorophenyl)-1,3-dihydroisobenzofuran-5-carbonitrile]
76	C=CCN(CCCc1cccc(OC)c1)CCCC1(c2ccc(F)cc2)OCc2cc(C#N)ccc21 (stereo not shown) [Compound 4l, 1-(4-Fluorophenyl)-1-[3-[[3-(3-methoxyphenyl)propyl](prop-2-en-1-yl)amino]propyl]-1,3-dihydroisobenzofuran-5-carbonitrile]

Same assay, conditions: cloned human 5-HT1A receptors expressed in HeLa cells (HA7), 15 minutes at 37 °C, pH 7.7

Structure (SMILES)	pIC50
CN(CCCCc1cccc2c1OCCO2)CCCC1(c2ccc(F)cc2)OCc2cc(C#N)ccc21 (single isomer, unassigned; (+)) [Compound 1a, (+)-1-[3-[[4-(1,4-Benzodioxan-5-yl)butyl]methylamino]propyl]-1-(4-fluorophenyl)-1,3-dihydroisobenzofuran-5-carbonitrile]	7.41
